# Measurements published in patent US9416129B2, “Tricyclic substituted thiadiazine dioxide compounds as BACE inhibitors, compositions and their use” (Merck Sharp & Dohme Corp., priority 2012, dated 2016).
# Experiments:
# human P-glycoprotein = human P-glycoprotein (Homo sapiens (Human), UniProt P08183); experiment: Pgp Mdr1 efflux ratio; format: in vitro ADME; details: for Pgp Mdr1 ER: efflux ratio, human P-glycoprotein
# human autoBACE-2 = human autoBACE-2 (Homo sapiens (Human), UniProt Q9Y5Z0); experiment: BACE-2 assay (BACE-HTRF, time-resolved endpoint proteolysis); format: biochemical; details: Ki calculated from IC50 using the Cheng-Prusoff equation; read-out: BACE2 Ki
# Experimental: Inhibitor IC50s at purified human autoBACE-2 are determined in a time-resolved endpoint proteolysis assay that measures hydrolysis of the QSY7-[…]-Eu-amide FRET peptide substrate (BACE-HTRF assay). […] DMSO is present at 5% final concentration in the assay. Following laser excitation of sample wells at 320 nm, the fluorescence signal at 620 nm is collected for 400 ms following a 50 μs delay on a RUBYstar HTRF plate reader (BMG Labtechnologies). Raw RFU data is normalized to maximum (1.0 nM BACE/DMSO) and minimum (no enzyme/DMSO) RFU values. […] The Ki values are calculated from the IC50 using the Cheng-Prusoff equation.
# [1] = target: soluble human BACE1 catalytic domain (Homo sapiens (Human), UniProt P56817); experiment: BACE1 HTRF FRET assay; format: biochemical; details: for Ki: Ki calculated from IC50 using the Cheng-Prusoff equation
# Text: Na^+-Acetate pH 5.0; 1% Brij-35; Glycerol; Dimethyl Sulfoxide (DMSO); Recombinant human soluble BACE1 catalytic domain (>95% pure); APP Swedish mutant peptide substrate (QSY7-APP^swe-Eu): QSY7-[…]-Europium-amide.
# A homogeneous time-resolved FRET assay can be used to determine IC50 values for inhibitors of the soluble human BACE1 catalytic domain. This assay monitors the increase of 620 nm fluorescence that resulted from BACE1 cleavage of an APPswedish APP^swe mutant peptide FRET substrate (QSY7-[…]-Europium-amide). This substrate contains an N-terminal QSY7 moiety that serves as a quencher of the C-terminal Europium fluorophore (620 nm Em). In the absence of enzyme activity, 620 nm fluorescence is low in the assay and increased linearly over 3 hours in the presence of uninhibited BACE1 enzyme Inhibition of BACE1 cleavage of the QSY7-APP^swe-Eu substrate by inhibitors is manifested as a suppression of 620 nm fluorescence.
# Varying concentrations of inhibitors at 3× the final desired concentration in a volume of 10 ul are preincubated with purified human BACE1 catalytic domain (3 nM in 10 μl) for 30 minutes at 30° C. in reaction buffer containing 20 mM Na-Acetate pH 5.0, 10% glycerol, 0.1% Brij-35 and 7.5% DSMO. Reactions are initiated by addition of 10 μl of 600 nM QSY7-APP^swe-Eu substrate (200 nM final) to give a final reaction volume of […] in a 384 well Nunc HTRF plate. The reactions are incubated at 30° C. for 1.5 hours. The 620 nm fluorescence is then read on a Rubystar HTRF plate reader (BMG Labtechnologies) using a 50 millisecond delay followed by a 400 millisecond acquisition time window. Inhibitor IC50 values are derived from non-linear regression analysis of concentration response curves.
# Cathepsin-D = Cathepsin-D (Homo sapiens (Human), UniProt P07339); experiment: Cathepsin-D inhibition (selectivity); format: biochemical
# Cathepsin-D, sequence (P07339 65-412, species assumed): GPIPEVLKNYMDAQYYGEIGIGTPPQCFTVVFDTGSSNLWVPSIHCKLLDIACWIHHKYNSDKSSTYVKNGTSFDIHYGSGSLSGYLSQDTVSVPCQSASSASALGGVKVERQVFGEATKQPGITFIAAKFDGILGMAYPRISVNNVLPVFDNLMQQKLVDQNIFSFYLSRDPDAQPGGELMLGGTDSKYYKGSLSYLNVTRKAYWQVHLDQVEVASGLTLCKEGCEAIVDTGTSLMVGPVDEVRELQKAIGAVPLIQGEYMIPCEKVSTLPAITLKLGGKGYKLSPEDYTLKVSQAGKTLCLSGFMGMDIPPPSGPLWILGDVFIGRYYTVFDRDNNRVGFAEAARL
# human autoBACE-2, sequence (Q9Y5Z0 63-473 limits assumed): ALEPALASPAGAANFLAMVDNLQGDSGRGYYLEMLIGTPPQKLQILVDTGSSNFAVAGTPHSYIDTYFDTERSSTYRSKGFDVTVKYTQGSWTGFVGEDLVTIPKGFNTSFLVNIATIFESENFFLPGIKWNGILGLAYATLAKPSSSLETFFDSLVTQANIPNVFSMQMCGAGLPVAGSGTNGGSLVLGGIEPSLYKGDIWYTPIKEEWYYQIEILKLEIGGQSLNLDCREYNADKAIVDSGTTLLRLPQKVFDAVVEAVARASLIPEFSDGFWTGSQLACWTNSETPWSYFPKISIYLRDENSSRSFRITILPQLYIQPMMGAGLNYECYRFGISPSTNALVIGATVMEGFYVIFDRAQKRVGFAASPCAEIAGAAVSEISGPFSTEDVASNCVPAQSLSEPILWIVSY
# human P-glycoprotein, sequence (P08183 whole entry): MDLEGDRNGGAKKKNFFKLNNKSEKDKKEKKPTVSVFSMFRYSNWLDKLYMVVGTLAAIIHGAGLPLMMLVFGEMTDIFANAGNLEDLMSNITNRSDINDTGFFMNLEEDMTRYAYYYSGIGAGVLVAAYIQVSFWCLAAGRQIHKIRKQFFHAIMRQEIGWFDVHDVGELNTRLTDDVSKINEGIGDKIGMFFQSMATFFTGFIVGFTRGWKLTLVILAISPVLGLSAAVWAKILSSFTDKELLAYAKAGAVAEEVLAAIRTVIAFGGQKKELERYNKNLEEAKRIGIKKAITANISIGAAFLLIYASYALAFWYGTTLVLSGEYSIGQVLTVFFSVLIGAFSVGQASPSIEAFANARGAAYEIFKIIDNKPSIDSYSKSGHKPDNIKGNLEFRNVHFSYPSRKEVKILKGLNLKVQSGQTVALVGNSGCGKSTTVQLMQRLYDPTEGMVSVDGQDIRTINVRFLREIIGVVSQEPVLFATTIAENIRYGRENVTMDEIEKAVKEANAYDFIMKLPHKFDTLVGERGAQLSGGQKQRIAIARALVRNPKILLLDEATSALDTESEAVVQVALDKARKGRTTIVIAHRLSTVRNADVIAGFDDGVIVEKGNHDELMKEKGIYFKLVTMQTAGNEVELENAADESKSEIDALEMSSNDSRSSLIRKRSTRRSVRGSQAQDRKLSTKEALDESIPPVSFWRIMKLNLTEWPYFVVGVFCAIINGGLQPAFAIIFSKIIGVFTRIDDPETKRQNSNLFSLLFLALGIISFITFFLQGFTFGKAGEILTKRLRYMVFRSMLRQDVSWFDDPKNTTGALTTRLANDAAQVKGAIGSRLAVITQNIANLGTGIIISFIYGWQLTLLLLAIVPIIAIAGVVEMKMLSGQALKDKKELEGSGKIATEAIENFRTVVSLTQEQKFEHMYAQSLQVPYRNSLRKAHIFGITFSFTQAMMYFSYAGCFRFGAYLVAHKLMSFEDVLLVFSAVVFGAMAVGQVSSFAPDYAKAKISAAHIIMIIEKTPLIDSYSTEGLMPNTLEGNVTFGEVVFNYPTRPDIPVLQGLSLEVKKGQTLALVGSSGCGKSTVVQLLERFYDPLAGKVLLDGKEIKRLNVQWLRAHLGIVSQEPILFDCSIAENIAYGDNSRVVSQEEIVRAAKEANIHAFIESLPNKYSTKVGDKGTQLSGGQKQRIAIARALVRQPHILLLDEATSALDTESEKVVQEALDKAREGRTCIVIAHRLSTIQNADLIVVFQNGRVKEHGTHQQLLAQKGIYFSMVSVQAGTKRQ
# soluble human BACE1 catalytic domain, sequence (P56817 75-416): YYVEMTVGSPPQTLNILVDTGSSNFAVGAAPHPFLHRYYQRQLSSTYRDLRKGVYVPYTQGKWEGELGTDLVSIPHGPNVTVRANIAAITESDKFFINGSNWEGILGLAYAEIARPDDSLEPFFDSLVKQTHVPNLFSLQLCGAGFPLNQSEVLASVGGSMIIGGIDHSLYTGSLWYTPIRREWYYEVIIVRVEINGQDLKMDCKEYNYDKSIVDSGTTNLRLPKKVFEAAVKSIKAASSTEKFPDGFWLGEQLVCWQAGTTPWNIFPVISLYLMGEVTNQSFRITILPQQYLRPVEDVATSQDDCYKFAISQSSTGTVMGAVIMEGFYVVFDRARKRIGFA
SMILES,Pgp Mdr1 ER (human P-glycoprotein),Ki (human autoBACE-2),Ki [1],Pgp susceptibility (in words) (human P-glycoprotein),BACE potency (in words) [1],Ki (Cathepsin-D; read-out: Cath-D Ki),Cathepsin-D selectivity (in words) (Cathepsin-D; selectivity for BACE over Cathepsin-D)
CN1C(=N)N[C@](C)(c2sc(-c3cccc(-c4nnc(C5CC5)o4)c3)cc2F)CS1(=O)=O [Example 18],0.53,4.2 nM,177 nM,,,,
CN1C(=N)N[C@](C)(c2sc(-c3cc(F)cc(-c4cnco4)c3)cc2Cl)CS1(=O)=O [Example 23],0.90,4.8 nM,11.4 nM,,,,
CN1C(=N)N[C@](C)(c2sc(-c3cccc(-c4ccno4)c3)cc2F)CS1(=O)=O [Example 14],1.6,3.5 nM,6.9 nM,,,,
CN1C(=N)N[C@](C)(c2sc3c(-c4ccc(-n5cccn5)nc4)nccc3c2Cl)CS1(=O)=O [Example 80],0.78,16 nM,10 nM,low Pgp susceptibility,good BACE potency,6970 nM,good Cathepsin-D selectivity
Cc1noc(-c2cccc(-c3cc(F)c([C@]4(C)CS(=O)(=O)N(C)C(=N)N4)s3)c2)n1 [Example 38],1.7,3.6 nM,29.1 nM,,,,
CN1C(=N)N[C@](C)(c2sc(-c3cc(F)cc(-c4cnco4)c3)cc2F)CS1(=O)=O [Example 25],1.1,4.8 nM,12.5 nM,,,,
CN1C(=N)N[C@](C)(c2sc(-c3cccc(-c4nnc(C5CC5)o4)c3)cc2Cl)CS1(=O)=O [Example 17],1.0,2.2 nM,203 nM,,,,

# These reach a lower Ki (human autoBACE-2). Values come first.
Pgp Mdr1 ER (human P-glycoprotein),Ki (human autoBACE-2),Ki [1],Pgp susceptibility (in words) (human P-glycoprotein),BACE potency (in words) [1],Ki (Cathepsin-D; read-out: Cath-D Ki),Cathepsin-D selectivity (in words) (Cathepsin-D; selectivity for BACE over Cathepsin-D),SMILES
1.7,0.34 nM,3.9 nM,,,,,CN1C(=N)N[C@](C)(c2sc(-c3cccc(-c4ncon4)c3)cc2F)CS1(=O)=O [Example 47]
1.3,2 nM,1.7 nM,,,,,CN1C(=N)N[C@](C)(c2sc(-c3cccc(-c4cnco4)c3)cc2Cl)CS1(=O)=O [Example 11]
1.7,0.73 nM,8.7 nM,,,,,CN1C(=N)N[C@](C)(c2sc(-c3cccc(-c4ncco4)c3)cc2F)CS1(=O)=O [Example 7]
0.49,1.4 nM,4.7 nM,,,,,CN1C(=N)N[C@](C)(c2sc(-c3cccc(-c4ncco4)c3)cc2Cl)CS1(=O)=O [Example 6]
0.70,0.41 nM,3.3 nM,,,,,CN1C(=N)N[C@](C)(c2sc(-c3cccc(-c4ncon4)c3)cc2Cl)CS1(=O)=O [Example 46]
1.2,1.1 nM,25.4 nM,,,,,Cc1nc(-c2cccc(-c3cc(F)c([C@]4(C)CS(=O)(=O)N(C)C(=N)N4)s3)c2)no1 [Example 42]
0.34,0.35 nM,13.4 nM,,,,,Cc1nc(-c2cccc(-c3cc(Cl)c([C@]4(C)CS(=O)(=O)N(C)C(=N)N4)s3)c2)no1 [Example 41]
